US12359242B2, “Chemical platform assisted proximity capture (CAP-C)” (The University of Chicago, priority 2018, dated 2025)

Test system: mouse embryonic stem cells (mESCs)
Experiment: CAP-C with G5 dendrimers on mESC samples treated with transcription elongation inhibitors
Type: cell-based
Settings: for peaks originally called in the control sample that remained: second time point; for contacts in 10 kb resolution contact matrix: mESC; for contact probability between distance-scaled bins 2-7, loop and non-loop domains: versus G5-control
Excerpt: The inventors then diffuse dendrimers into the cell nucleus and expose these cells to UV irradiation (FIG. 1A). The formaldehyde fixing is then reversed, and DNA-bound proteins are removed with protease to expose all DNA motifs, the dendrimer-DNA complexes are subsequently purified with ethanol precipitation. The purified dendrimer-DNA complexes are then subjected to MboI restriction digestion and end-filling with biotin-bearing DNA, followed by ligation under ultra-diluted solution, biotin capture and high-throughput sequencing (FIG. 1A). Dendrimers with a defined size were used for each CAP-C experiment.
Inhibition of transcription reduces supercoiling and leads to global loss of chromatin contacts. Chromatin topology highly associates with supercoiling, and supercoiling domains have been proposed and identified. […] Motivated by a relationship between transcription-induced supercoiling and domain organization, the inventors next examined whether transcription inhibition affects chromatin architecture. The inventors explored two different transcription elongation inhibitors, flavopiridol and α-amanitin. Reduced levels and rates of supercoiling have been observed upon transcription inhibition. Thus, the inventors performed time-series CAP-C experiments using G5 dendrimers to crosslink mESC samples treated with 2 μM flavopiridol for 1 h and 6 h, as well as samples treated with 4 μg/ml of α-amanitin for 6 h and 12 h, respectively.
The signals of these peaks were, however, weakly attenuated (FIG. 5A). Because these inhibitor-treated and G5-control samples are low-resolution contact maps, the inventors applied Aggregate Peak Analysis (APA) of the peaks called in the deep sequenced CAP-C dataset. […] The inventors plotted the mean contact maps of 103-263 loop-domains (median length: 170 Kb) shared between the control and inhibitor-treated samples by rescaling them into 10 bins (i.e. contact domains in G5-control overlapping loops that are shared between control and inhibitor-treated samples). […] The inventors also quantified these maps into a contact probability vs distance-scaled bins line-plot for all loop domains, non-loop domains and randomly permutated domains. […] Increasing contact frequencies identified at corners of inhibitor-treated loop-domains (bins 8-10) indicate the presence as well as attenuation of peaks from G5-control (FIG. 5E). This is in stark contrast to the absence of such an increase in non-loop domains and randomly permutated domain boundaries.

Row | SMILES | APA scores versus control (6 h and 12 h treated samples) | peaks originally called in the control sample that remained (12 hr treatment) | contacts in 10 kb resolution contact matrix (4 μg/ml α-amanitin for 6 h and 12 h) | contact probability between distance-scaled bins 2-7, loop and non-loop domains | peaks originally called in the control sample that remained (6 hr treatment) | loops (APA and meta-analysis) (flavopiridol-treated samples) | contacts in 10 kb resolution contact matrix (2 μM flavopiridol for 1 h and 6 h) | contacts over 1 Mb (relative contact frequency vs distance) (transcription inhibitor-treated vs control)
1 | CC[C@H](C)[C@@H]1NC(=O)CNC(=O)[C@@H]2Cc3c([nH]c4cc(O)ccc34)[S+]([O-])C[C@@H](NC(=O)CNC1=O)C(=O)N[C@@H](CC(N)=O)C(=O)N1C[C@H](O)C[C@H]1C(=O)N[C@@H]([C@@H](C)[C@@H](O)CO)C(=O)N2 (stereo in doubt) [α-amanitin] | greater | more than half | profound decrease in contacts | general decrease | – | – | – | –
2 | CN1CC[C@H](c2c(O)cc(O)c3c(=O)cc(-c4ccccc4Cl)oc23)[C@H](O)C1 [flavopiridol] | – | – | – | same trends | more than half | attenuated but preserved | profound decrease in contacts | slightly strong depletion
